Experimental data as given in patent US8697694B2, “Substituted pyridine and pyrimidine derivatives and their use in treating viral infections” (priority 2008, dated 2014).

Each compound was assayed on HCV replicon cells (assay: Cell-based HCV replicon assay (replicon RNA level by real time PCR, Taqman)). Conditions: HCV replicon cells, replicon RNA level by real time PCR, harvested day 3; read-out: EC90 (μM) range.
Method: Assays Cell-Based HCV Replicon Assay
To measure cell-based anti-HCV activity of the compounds of the present invention, replicon cells were seeded at 5000 cells/well in 96-well collagen I-coated Nunc plates in the presence of the compound of the invention. Various concentrations of a compound of the invention, typically in 10 serial 2-fold dilutions, were added to the assay mixture, the starting concentration of the compound ranging from 25 μM to 1 μM. The final concentration of DMSO was 0.5%, fetal bovine serum was 10%, in the assay media. Cells were harvested on day 3 by the addition of 1× cell lysis buffer (Ambion cat #8721). The replicon RNA level was measured using real time PCR (Taqman assay). The amplicon was located in 5B. The PCR primers were: 5B.2F, ATGGACAGGCGCCCTGA (SEQ. ID NO. 1); 5B.2R, […] (SEQ. ID NO. 2); the probe sequence was FAM-labeled CACGCCATGCGCTGCGG (SEQ. ID NO. 3). GAPDH RNA was used as endogenous control and was amplified in the same reaction as NS5B (multiplex PCR) using primers and VIC-labeled probe recommended by the manufacturer (PE Applied Biosystem). The real-time RT-PCR reactions were run on ABI PRISM 7900HT Sequence Detection System using the following program: 48′C for 30 min, 95° C. for 10 min, 40 cycles of 95° C. for 15 sec, 60° C. for 1 min. The ΔCT values (CT5B-CTGAPDH) were plotted against the concentration of test compound and fitted to the sigmoid dose-response model using GraphPad PRISM software. EC50 was defined as the concentration of inhibitor necessary to achieve ΔCT=1 over the projected baseline; EC90 the concentration necessary to achieve ΔCT=3.2 over the baseline. Alternatively, to quantitate the absolute amount of replicon RNA, a standard curve was established by including serially diluted T7 transcripts of replicon RNA in the Taqman assay. All Taqman reagents were from PE Applied Biosystems. Such an assay procedure was described in detail in e.g. Malcolm et al., Antimicrobial Agents and Chemotherapy 50: 1013-1020 (2006).
HCV Replicon assay data for compounds of the invention that were tested was obtained using the above method. Calculated EC90 values are reported for each compound in Table I as a falling within the following ranges: […]
With `Cc1nc(N[C@H](C)c2ccc(OC(F)(F)F)cc2)nc(N[C@@H]2C[C@H](C(C)O)[C@@H](O)[C@H]2O)c1-c1nc2ccccc2s1` (single isomer, unassigned) [Example 1646] the EC90 was 0.5 to 5 µM.
For `Cc1nc(NCC(F)(F)F)nc(N[C@@H]2C[C@H](C(C)O)[C@@H](O)[C@H]2O)c1-c1nc2ccccc2s1` (single isomer, unassigned) [Example 1648], the EC90 was 0.5 to 5 µM.

Same assay, conditions: Hepatitis C virus, 72 h, HCV replicon cells, harvested day 3, replicon RNA by real time PCR; given as number; read-out: EC90 (μM) range
`Cc1nc(NCC(F)(F)F)nc(N[C@@H]2CC[C@@H](O)C2)c1-c1nc2ccccc2s1` [Example 54] showed an EC90 of 1 µM.
Work on `CCN(CC)C(=O)OC[C@H]1C[C@@H](Nc2nc(NCC(F)(F)F)nc(C)c2-c2nc3ccccc3s2)[C@H](O)[C@@H]1O` [Example 65] yielded an EC90 of 1 µM.
Compound `CCCOc1cc2cc(-c3c(C)nc(NCC4CC4)nc3N[C@@H]3C[C@H](CO)[C@@H](O)[C@H]3O)oc2cn1` [Example 62] has an EC90 of 0.7 µM.

Same assay, conditions: Hepatitis C virus, 72 h, HCV replicon cells, harvested day 3, replicon RNA by real time PCR; reported as range class; read-out: EC90 (μM) range
Work on `Nc1nc(Cl)c(-c2ncco2)c(N[C@@H]2C[C@H](CO)[C@@H](O)[C@H]2O)n1` [Example 106] yielded an EC90 greater than 5 µM.
With `CCCc1cc2cc(-c3c(Cl)nc(NC)nc3N[C@@H]3C[C@H](CO)[C@@H](O)[C@H]3O)oc2c(C)n1` [Example 312] the EC90 was less than 0.5 µM.
In the case of `Nc1nc(Cl)c(-c2cc3cc(-c4ccccc4)ccc3o2)c(N[C@@H]2C[C@H](CO)[C@@H](O)[C@H]2O)n1` [Example 174], the EC90 is reported as greater than 5 µM.
`Nc1nc(Cl)c(-c2nccs2)c(N[C@@H]2C[C@H](CO)[C@@H](O)[C@H]2O)n1` [Example 104] showed an EC90 greater than 5 µM.
With `CCOc1cc2cc(-c3c(C)nc(Nc4ccccc4)nc3N[C@@H]3C[C@H](CO)[C@@H](O)[C@H]3O)oc2c(C)n1` [Example 33] the EC90 was greater than 5 µM.
In the case of `Nc1nc(Cl)c(-c2nc3ccccc3o2)c(N[C@@H]2C[C@H](CO)[C@@H](O)[C@H]2O)n1` [Example 109], the EC90 is reported as less than 0.5 µM.

Same assay, conditions: Hepatitis C virus, 72 h, HCV replicon cells, harvested on day 3, replicon RNA by real time PCR; calculated EC90 reported as range class; read-out: EC90 (μM) range
In the case of `Cc1nc(NCCNS(C)(=O)=O)nc(N[C@@H]2C[C@H](CO)[C@@H](O)[C@H]2O)c1-c1nc2ccccc2s1` [Example 258], the EC90 is reported as 0.5 to 5 µM.
With `CCCCCCNc1nc(Cl)c(-c2nc3ccccc3s2)c(N[C@@H]2C[C@H](CO)[C@@H](O)[C@H]2O)n1` [Example 454] the EC90 was less than 0.5 µM.
With `Cc1nc(NCCN(C)C)nc(N[C@@H]2C[C@H](CO)[C@@H](O)[C@H]2O)c1-c1nc2ccccc2s1` [Example 246] the EC90 was greater than 5 µM.
Work on `OC[C@H]1C[C@@H](Nc2nc(NCC3CCCCC3)nc(Cl)c2-c2nc3ccccc3s2)[C@H](O)[C@@H]1O` [Example 322] yielded an EC90 of less than 0.5 µM.
For `CCCCCNc1nc(C)c(-c2cc3cc(C)ncc3o2)c(N[C@@H]2C[C@H](CO)[C@@H](O)[C@H]2O)n1` [Example 453], the EC90 was less than 0.5 µM.
`Cc1cc2cc(-c3c(Cl)nc(NCC(F)(F)F)nc3N[C@@H]3C[C@H](CO)[C@@H](O)[C@H]3O)oc2c(C)n1` [Example 456] was tested, and the EC90 was less than 0.5 µM.

Same assay, conditions: Hepatitis C virus, 72 h, HCV replicon cells, replicon RNA level by real time PCR (Taqman), day 3; calculated EC90; read-out: EC90 (μM) range
In the case of `Cc1nc(N[C@@H](C2CC2)C(F)(F)F)nc(N[C@@H]2C[C@H](CO)[C@@H](O)[C@H]2O)c1-c1nc2ccccc2s1` [Example 2013], the EC90 is reported as 0.5 to 5 µM.
For `COc1cc(CCNc2nc(C)c(-c3nc4cnccc4s3)c(N[C@@H]3C[C@H](CO)[C@H]4OC(C)(C)O[C@H]43)n2)cc(OC)c1` [Example 2009], the EC90 was less than 0.5 µM.

Same assay, conditions: Hepatitis C virus, 72 h, HCV replicon cells, replicon RNA level by real time PCR (Taqman), harvested on day 3; calculated EC90 reported as range class; read-out: EC90 (μM) range
With `Cc1nc(N(C)Cc2ccccc2)nc(N[C@@H]2C[C@H](CO)[C@@H](O)[C@H]2O)c1-c1nc2ccccc2s1` [Example 1116] the EC90 was greater than 5 µM.
`Cc1cnc(CNc2nc(C)c(-c3nc4ccccc4s3)c(N[C@@H]3C[C@H](CO)[C@@H](O)[C@H]3O)n2)s1` [Example 1204] was tested, and the EC90 was less than 0.5 µM.
Compound `[2H]C([2H])(Nc1nc(C)c(-c2nc3ccccc3s2)c(N[C@@H]2C[C@H](CO)[C@@H](O)[C@H]2O)n1)C(F)(F)F` [Example 1250] has an EC90 of 0.5 to 5 µM.
Work on `CCc1cc2cc(-c3c(C)nc(NC)nc3N[C@@H]3C[C@H](CO)[C@@H](O)[C@H]3O)oc2cn1` [Example 527] yielded an EC90 of less than 0.5 µM.
`CC(=O)NC[C@H]1C[C@@H](Nc2nc(NCc3cccs3)nc(C)c2-c2nc3ccccc3s2)[C@H](O)[C@@H]1O` [Example 1331] was tested, and the EC90 was less than 0.5 µM.
In the case of `Cc1cc2sc(-c3c(C)nc(NCC(F)(F)F)nc3N[C@@H]3C[C@H](CO)[C@@H](O)[C@H]3O)nc2c(C)n1` [Example 1135], the EC90 is reported as less than 0.5 µM.
`Cc1ccc(C2(Nc3nc(C)c(-c4nc5cnccc5s4)c(N[C@@H]4C[C@H](CO)[C@@H](O)[C@H]4O)n3)CC2)cc1` [Example 1315] gave an EC90 of 0.5 to 5 µM.
`COc1cc2cc(-c3c(C)nc(NCC(C)(C)C)nc3N[C@@H]3C[C@H](CO)[C@@H](O)[C@H]3O)oc2c(C)n1` [Example 1201] gave an EC90 of 0.5 to 5 µM.
`Cc1ccc([C@@H](C)Nc2nc(C)c(-c3nc4c(C)nccc4s3)c(N[C@@H]3C[C@H](CO)[C@@H](O)[C@H]3O)n2)cc1` [Example 1320] gave an EC90 of less than 0.5 µM.
In the case of `Cc1nc(NCc2cccc(CN(C)C)c2)nc(N[C@@H]2C[C@H](CO)[C@@H](O)[C@H]2O)c1-c1nc2ccccc2s1` [Example 1119], the EC90 is reported as 0.5 to 5 µM.
Work on `Cc1nc(N(C)Cc2ccccc2)nc(N[C@@H]2C[C@H](CO)[C@@H](O)[C@H]2O)c1-c1nc2cnccc2s1` [Example 1313] yielded an EC90 of 0.5 to 5 µM.
`CCOCCNc1nc(C)c(-c2nc3ccccc3o2)c(N[C@@H]2C[C@H](CO)[C@@H](O)[C@H]2O)n1` [Example 529] showed an EC90 of less than 0.5 µM.
`Cc1nc(N[C@@H]2CCc3ccccc32)nc(N[C@@H]2C[C@H](CO)[C@@H](O)[C@H]2O)c1-c1nc2cnccc2s1` [Example 1312] was tested, and the EC90 was 0.5 to 5 µM.
Compound `Cc1nc(NCc2ccccc2O)nc(N[C@@H]2C[C@H](CO)[C@@H](O)[C@H]2O)c1-c1nc2ccccc2s1` [Example 1220] has an EC90 of less than 0.5 µM.
`Cc1nc(NCC(C)(C)C)nc(N[C@@H]2C[C@H](CO)[C@@H](O)[C@H]2O)c1-c1ccc2ccccc2n1` [Example 1322] was tested, and the EC90 was greater than 5 µM.
For `Cc1cc2nc(-c3c(C)nc(NCC(F)(F)F)nc3N[C@@H]3C[C@H](CO)[C@@H](O)[C@H]3O)sc2cc1C` [Example 1061], the EC90 was 0.5 to 5 µM.
With `COc1cc(OC)cc(C(C)Nc2nc(C)c(-c3nc4cnccc4s3)c(N[C@@H]3C[C@H](CO)[C@@H](O)[C@H]3O)n2)c1` (stereo partly shown) [Example 1306] the EC90 was less than 0.5 µM.

Same assay, conditions: Hepatitis C virus, 72 h, HCV replicon cells, replicon RNA level by real time PCR, harvested day 3; read-out: EC90 (μM) range
In the case of `COCCNc1nc(C)c(-c2cc3ccccc3s2)c(N[C@@H]2C[C@H](CO)[C@@H](O)[C@H]2O)n1` [Example 1601], the EC90 is reported as greater than 5 µM.
For `Cc1nc(N[C@@H](c2ccsc2)C(F)(F)F)nc(N[C@@H]2C[C@H](CO)[C@@H](O)[C@H]2O)c1-c1nc2ccccc2s1` [Example 1703], the EC90 was 0.5 to 5 µM.
In the case of `Cc1nc(N[C@H](C)c2ccc(OC(F)(F)F)cc2)nc(N[C@@H]2C[C@H](C(C)O)[C@@H](O)[C@H]2O)c1-c1nc2c(C)nccc2s1` (stereo partly shown) [Example 1399], the EC90 is reported as less than 0.5 µM.
`Cc1nc(NCC(F)(F)F)nc(NC2CCN(C(=O)OC(C)(C)C)CC2)c1-c1nc2ccccc2s1` [Example 1514] gave an EC90 greater than 5 µM.
`Cc1nc(N[C@H](C)c2ccc(OC(F)(F)F)cc2)nc(N[C@@H]2C[C@H](CO)[C@@H](O)[C@H]2O)c1-c1nc2c(C3CC3)nccc2s1` [Example 1401] was tested, and the EC90 was less than 0.5 µM.
Work on `Cc1nc(NCC(F)(F)F)nc(N[C@@H]2CC[C@@H](O)C2O)c1-c1nc2ccccc2s1` (stereo partly shown) [Example 1625] yielded an EC90 of 0.5 to 5 µM.
Compound `COc1nc(C)c(-c2nc3ccccc3s2)c(N[C@@H]2C[C@H](CO)[C@@H](O)[C@H]2O)n1` [Example 1907] has an EC90 of 0.5 to 5 µM.
With `Cc1nc(NCC(F)(F)F)nc(N[C@@H]2C[C@H](C(O)c3nccs3)[C@@H](O)[C@H]2O)c1-c1nc2ccccc2s1` (stereo partly shown) [Example 1639] the EC90 was less than 0.5 µM.
`Cc1nc(N[C@H](C)C2CC2)nc(N[C@@H]2C[C@H](CO)[C@@H](O)[C@H]2O)c1-c1nc2c(CC(C)C)nccc2s1` [Example 1373] was tested, and the EC90 was less than 0.5 µM.
`Cc1nc(NCC(F)(F)F)nc(NC2CCN(C(=O)OC(C)(C)C)C2)c1-c1nc2ccccc2s1` (stereo not shown) [Example 1515] was tested, and the EC90 was 0.5 to 5 µM.
With `Cc1nc(NCC2CC2)nc(N[C@@H]2CC[C@@H](O)C2O)c1-c1nc2ccccc2s1` (stereo partly shown) [Example 1626] the EC90 was 0.5 to 5 µM.
Work on `CCC1(O)[C@H](O)[C@@H](CO)C[C@H]1Nc1nc(NCC2CC2)nc(C)c1-c1nc2cnccc2s1` (stereo partly shown) [Example 1385] yielded an EC90 of less than 0.5 µM.
In the case of `Cc1nc(NCC(F)(F)F)nc(N[C@@H]2C[C@H](CNS(=O)(=O)CC(F)(F)F)[C@@H](O)[C@H]2O)c1-c1nc2ccccc2s1` [Example 1520], the EC90 is reported as 0.5 to 5 µM.
